Experimental data taken from ChEMBL document CHEMBL1201862, “PubChem BioAssay data set” (2004).
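Method: 48-hour compound exposure of cells in 96-well plates, five concentrations, linear interpolation of endpoints. Abbreviation: GI50, concentration required for 50% inhibition of growth.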 Activity calls are given as the source filed them. Cut-off read from the data, not from the text of the source: active = GI50 up to about 1.1 µM and inactive = higher.

How the values were obtained:
Assay in all cases: DTP human tumour cell line panel, 48 h
[1] = system: OVCAR-3
[2] = system: DLD-1
[3] = system: SNB-78
[4] = system: SF-295
[5] = system: SN12C
[6] = system: HOP-92
[7] = system: U-251
[8] = system: RXF 393
[9] = system: CAKI-1
[10] = system: RXF 631
[11] = system: HOP-62
[12] = system: UACC-62
[13] = system: HCT-116
[14] = system: HOP-18
[15] = system: DMS-114
[16] = system: RPMI-8226
[17] = system: SF-539
[18] = system: UO-31
[19] = system: HT-29
[20] = system: M19-MEL
[21] = system: LXFL 529
[22] = system: HCT-15
[23] = system: SF-268
[24] = system: 786-0
[25] = system: A498
[26] = system: DMS-273
[27] = system: HCC 2998
[28] = system: ACHN
[29] = system: Malme-3M
[30] = system: SK-OV-3
[31] = system: COLO 205
[32] = system: SW-620
[33] = system: SNB-75
[34] = system: EKVX
[35] = system: KM12
[36] = system: M14
[37] = system: UACC-257
[38] = system: SK-MEL-28
[39] = system: OVCAR-4
[40] = system: IGROV-1
[41] = system: OVCAR-8
[42] = system: SK-MEL-2
[43] = system: SNB-19
[44] = system: A549
[45] = system: NCI-H23
[46] = system: K562
[47] = system: KM-20L2
[48] = system: NCI-H522
[49] = system: NCI-H226
[50] = system: NCI-H460
[51] = system: OVCAR-5
[52] = system: SK-MEL-5
[53] = system: TK-10
[54] = system: XF498
[55] = system: LOX IMVI
[56] = system: CCRF-CEM
[57] = system: MOLT-4
[58] = system: HL-60

Which GI50 [1] does the source give for `COc1ccc2c(c1)[n+]([O-])c(C(=O)C/C(=N/NC(=O)C[N+](C)(C)C)C(=O)Nc1cccc(C)c1C)c(C)[n+]2[O-]` here?
Its GI50 is > 100 µM (inactive).

And the GI50 [2]?
The GI50 was > 100 µM (inactive).

And the GI50 [3]?
The GI50 was > 100 µM (inactive).

What about the GI50 [4] of the same compound?
Its GI50 is > 100 µM (inactive).

And the GI50 [5]?
The GI50 was > 100 µM (inactive).

What about the GI50 [6] of the same compound?
The GI50 was 59 µM (inactive).

And the GI50 [7]?
Its GI50 is > 100 µM (inactive).

And the GI50 [8]?
Its GI50 is > 100 µM (inactive).

What about the GI50 [9] of the same compound?
Its GI50 is > 100 µM (inactive).

And the GI50 [10]?
Its GI50 is > 100 µM (inactive).

And the GI50 [11]?
Its GI50 is > 100 µM (inactive).

What about the GI50 [12] of the same compound?
Its GI50 is > 100 µM (inactive).

And the GI50 [13]?
Its GI50 is > 100 µM (inactive).

And the GI50 [14]?
The GI50 was > 100 µM (inactive).

What about the GI50 [15] of the same compound?
The GI50 was > 100 µM (inactive).

What about the GI50 [16] of the same compound?
Its GI50 is > 100 µM (inactive).

What about the GI50 [17] of the same compound?
The GI50 was > 100 µM (inactive).

And the GI50 [18]?
The GI50 was > 100 µM (inactive).

What about the GI50 [19] of the same compound?
The GI50 was > 100 µM (inactive).

And the GI50 [20]?
The GI50 was > 100 µM (inactive).

And the GI50 [21]?
Its GI50 is > 100 µM (inactive).

What about the GI50 [22] of the same compound?
Its GI50 is over 100 µM.

And the GI50 [23]?
Its GI50 is > 100 µM (inactive).

What about the GI50 [24] of the same compound?
The GI50 was > 100 µM (inactive).

What about the GI50 [25] of the same compound?
Its GI50 is > 100 µM (inactive).

And the GI50 [26]?
The GI50 was > 100 µM (inactive).

What about the GI50 [27] of the same compound?
The GI50 was > 100 µM (inactive).

And the GI50 [28]?
The GI50 was > 100 µM (inactive).

What about the GI50 [29] of the same compound?
Its GI50 is > 100 µM (inactive).

And the GI50 [30]?
The GI50 was > 100 µM (inactive).

What about the GI50 [31] of the same compound?
The GI50 was > 100 µM (inactive).

What about the GI50 [32] of the same compound?
Its GI50 is > 100 µM (inactive).

And the GI50 [33]?
The GI50 was > 100 µM (inactive).

What about the GI50 [34] of the same compound?
The GI50 was > 100 µM (inactive).

And the GI50 [35]?
Its GI50 is 6.34 µM (inactive).

And the GI50 [36]?
The GI50 was > 100 µM (inactive).

And the GI50 [37]?
The GI50 was 28.6 µM (inactive).

What about the GI50 [38] of the same compound?
Its GI50 is > 100 µM (inactive).

And the GI50 [39]?
The GI50 was > 100 µM (inactive).

What about the GI50 [40] of the same compound?
Its GI50 is > 100 µM (inactive).

What about the GI50 [41] of the same compound?
Its GI50 is > 100 µM (inactive).

What about the GI50 [42] of the same compound?
The GI50 was > 100 µM (inactive).

What about the GI50 [43] of the same compound?
Its GI50 is > 100 µM (inactive).

What about the GI50 [44] of the same compound?
Its GI50 is > 100 µM (inactive).

And the GI50 [45]?
Its GI50 is > 100 µM (inactive).

What about the GI50 [46] of the same compound?
The GI50 was > 100 µM (inactive).

And the GI50 [47]?
The GI50 was > 100 µM (inactive).

And the GI50 [48]?
Its GI50 is > 100 µM (inactive).

And the GI50 [49]?
Its GI50 is > 100 µM (inactive).

And the GI50 [50]?
The GI50 was > 100 µM (inactive).

What about the GI50 [51] of the same compound?
Its GI50 is 67.1 µM (inactive).

Which results are given for `C=CCNC1=NC(=O)C(CC(=O)Nc2cccc(Cl)c2)S1` (stereo unspecified)?
GI50 [1]: > 100 µM (inactive); GI50 [2]: > 100 µM (inactive); GI50 [4]: > 100 µM (inactive); GI50 [5]: > 100 µM (inactive); GI50 [52]: > 100 µM (inactive); GI50 [7]: > 100 µM (inactive); GI50 [8]: > 100 µM (inactive); GI50 [9]: > 100 µM (inactive); GI50 [10]: > 100 µM (inactive); GI50 [11]: > 100 µM (inactive); GI50 [12]: > 100 µM (inactive); GI50 [14]: > 100 µM (inactive); GI50 [15]: > 100 µM (inactive); GI50 [16]: > 100 µM (inactive); GI50 [17]: > 100 µM (inactive); GI50 [53]: > 100 µM (inactive); GI50 [18]: > 100 µM (inactive); GI50 [19]: > 100 µM (inactive); GI50 [20]: > 100 µM (inactive); GI50 [21]: > 100 µM (inactive); GI50 [54]: > 100 µM (inactive); GI50 [55]: > 100 µM (inactive); GI50 [22]: > 100 µM; GI50 [23]: > 100 µM (inactive); GI50 [24]: > 100 µM (inactive); GI50 [25]: > 100 µM (inactive); GI50 [26]: > 100 µM (inactive); GI50 [56]: > 100 µM (inactive); GI50 [27]: > 100 µM (inactive); GI50 [28]: > 100 µM (inactive); GI50 [29]: > 100 µM (inactive); GI50 [30]: > 100 µM (inactive); GI50 [31]: > 100 µM (inactive); GI50 [32]: > 100 µM (inactive); GI50 [57]: > 100 µM (inactive); GI50 [33]: > 100 µM (inactive); GI50 [34]: > 100 µM (inactive); GI50 [35]: > 100 µM (inactive); GI50 [36]: > 100 µM (inactive); GI50 [37]: > 100 µM (inactive); GI50 [38]: > 100 µM (inactive); GI50 [39]: > 100 µM (inactive); GI50 [40]: > 100 µM (inactive); GI50 [41]: > 100 µM (inactive); GI50 [42]: > 100 µM (inactive); GI50 [43]: > 100 µM (inactive); GI50 [44]: > 100 µM (inactive); GI50 [45]: > 100 µM (inactive); GI50 [46]: > 100 µM (inactive); GI50 [47]: > 100 µM (inactive); GI50 [48]: > 100 µM (inactive); GI50 [49]: > 100 µM (inactive); GI50 [58]: > 100 µM (inactive); GI50 [50]: > 100 µM (inactive); GI50 [51]: > 100 µM (inactive)
